We go through 7 molecules from US20240132521A1, “COMPOUNDS AND METHODS FOR MODULATING HER2” (Iambic Therapeutics, Inc., priority 2022, published 2024).

SMILES strings stand for the structures.

What all share (type): cell-based
Test [1] addresses BaF3_EGFRWT cells (Homo sapiens, UniProt P00533). Briefly: Cell growth inhibition assay (CellTiterGlo), BaF3_EGFRWT. The settings on record: 3-day treatment, CellTiterGlo, read-out: Cell growth inhibition activity, EGFR WT. On the technique in general: Cellular ATP, detected with luciferase, serves as a proxy for viable cell number.
Test [2] has as its target BaF3_HER2YVMA cells (Homo sapiens, UniProt P04626, DUP772-775, cells depend on it). Briefly: Cell growth inhibition assay (CellTiterGlo), BaF3_HER2YVMA. The conditions noted are these: 3-day treatment, CellTiterGlo, read-out: Cell growth inhibition activity, HER2 - YVMA.
Test [3] deals with BaF3_HER2WT cells (Homo sapiens, UniProt P04626). Briefly: Cell growth inhibition assay (CellTiterGlo), BaF3_HER2WT. The conditions noted are these: 3-day treatment, CellTiterGlo, read-out: Cell growth inhibition activity, HER2 WT.
BaF3_HER2WT cells, sequence (P04626 whole entry, change not shown): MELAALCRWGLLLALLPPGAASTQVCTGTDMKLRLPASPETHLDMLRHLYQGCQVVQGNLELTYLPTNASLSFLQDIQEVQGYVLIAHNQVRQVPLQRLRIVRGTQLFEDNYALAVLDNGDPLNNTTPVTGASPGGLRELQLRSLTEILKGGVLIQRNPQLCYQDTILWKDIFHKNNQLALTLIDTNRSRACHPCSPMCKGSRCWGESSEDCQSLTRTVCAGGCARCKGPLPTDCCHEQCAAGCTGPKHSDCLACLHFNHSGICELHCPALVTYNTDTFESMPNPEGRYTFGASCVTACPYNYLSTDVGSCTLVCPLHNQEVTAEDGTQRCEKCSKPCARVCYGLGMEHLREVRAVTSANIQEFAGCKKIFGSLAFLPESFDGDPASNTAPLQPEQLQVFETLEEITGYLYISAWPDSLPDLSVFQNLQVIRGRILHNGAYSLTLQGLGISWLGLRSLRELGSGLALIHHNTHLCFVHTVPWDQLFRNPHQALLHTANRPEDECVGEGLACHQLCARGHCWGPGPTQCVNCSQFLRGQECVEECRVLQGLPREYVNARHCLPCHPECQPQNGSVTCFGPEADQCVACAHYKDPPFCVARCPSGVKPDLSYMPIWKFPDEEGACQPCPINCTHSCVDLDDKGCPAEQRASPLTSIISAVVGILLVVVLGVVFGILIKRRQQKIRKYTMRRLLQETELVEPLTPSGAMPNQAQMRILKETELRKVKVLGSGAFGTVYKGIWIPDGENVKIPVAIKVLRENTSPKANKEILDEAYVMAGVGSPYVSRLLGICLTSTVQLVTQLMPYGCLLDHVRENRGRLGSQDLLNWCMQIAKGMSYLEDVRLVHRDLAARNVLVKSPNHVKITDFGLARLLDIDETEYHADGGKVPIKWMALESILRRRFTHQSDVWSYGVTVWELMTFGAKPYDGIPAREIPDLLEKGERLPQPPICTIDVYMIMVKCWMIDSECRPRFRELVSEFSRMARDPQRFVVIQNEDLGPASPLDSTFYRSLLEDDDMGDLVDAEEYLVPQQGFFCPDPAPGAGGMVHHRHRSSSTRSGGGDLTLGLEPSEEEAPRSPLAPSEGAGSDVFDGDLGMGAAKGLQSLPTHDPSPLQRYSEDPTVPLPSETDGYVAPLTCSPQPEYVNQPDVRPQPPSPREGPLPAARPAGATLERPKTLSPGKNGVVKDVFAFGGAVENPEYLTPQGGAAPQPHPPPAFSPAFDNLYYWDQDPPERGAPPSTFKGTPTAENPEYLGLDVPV

BaF3_HER2YVMA cells, sequence (P04626 with tags, fused parts or gaps DUP772-775): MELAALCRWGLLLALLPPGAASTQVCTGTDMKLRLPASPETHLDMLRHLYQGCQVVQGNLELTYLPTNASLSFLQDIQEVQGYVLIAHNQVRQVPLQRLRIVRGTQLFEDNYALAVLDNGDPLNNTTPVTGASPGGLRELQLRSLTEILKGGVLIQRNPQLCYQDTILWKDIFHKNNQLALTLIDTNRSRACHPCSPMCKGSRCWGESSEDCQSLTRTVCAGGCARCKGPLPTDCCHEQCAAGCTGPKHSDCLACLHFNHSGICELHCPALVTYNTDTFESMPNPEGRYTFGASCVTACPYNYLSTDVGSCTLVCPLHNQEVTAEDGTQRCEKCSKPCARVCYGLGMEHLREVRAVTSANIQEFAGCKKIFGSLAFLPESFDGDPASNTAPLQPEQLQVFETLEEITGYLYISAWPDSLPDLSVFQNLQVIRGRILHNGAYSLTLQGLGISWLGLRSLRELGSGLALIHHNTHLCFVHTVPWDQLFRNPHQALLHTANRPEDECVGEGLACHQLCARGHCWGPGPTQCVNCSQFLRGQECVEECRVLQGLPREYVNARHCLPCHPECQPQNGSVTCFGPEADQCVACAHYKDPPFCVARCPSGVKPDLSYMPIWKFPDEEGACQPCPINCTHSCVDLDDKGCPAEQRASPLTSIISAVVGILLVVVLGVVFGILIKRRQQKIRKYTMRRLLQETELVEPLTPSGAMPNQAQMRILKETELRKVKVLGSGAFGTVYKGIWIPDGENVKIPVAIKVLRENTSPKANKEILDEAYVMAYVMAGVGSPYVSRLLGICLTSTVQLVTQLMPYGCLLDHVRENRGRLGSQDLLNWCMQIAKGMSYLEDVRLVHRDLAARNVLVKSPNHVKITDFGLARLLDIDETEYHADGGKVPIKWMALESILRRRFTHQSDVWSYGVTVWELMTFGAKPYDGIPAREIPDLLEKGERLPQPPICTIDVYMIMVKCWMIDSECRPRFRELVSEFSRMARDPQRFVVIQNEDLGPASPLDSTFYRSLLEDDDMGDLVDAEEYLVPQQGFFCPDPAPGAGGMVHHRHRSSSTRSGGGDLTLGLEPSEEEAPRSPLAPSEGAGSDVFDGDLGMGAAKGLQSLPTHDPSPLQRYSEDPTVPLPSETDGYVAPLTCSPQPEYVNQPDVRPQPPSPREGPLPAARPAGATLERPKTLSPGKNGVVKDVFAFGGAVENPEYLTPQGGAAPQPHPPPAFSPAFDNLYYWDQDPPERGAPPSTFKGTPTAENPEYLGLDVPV
BaF3_EGFRWT cells, sequence (P00533 whole entry, change not shown): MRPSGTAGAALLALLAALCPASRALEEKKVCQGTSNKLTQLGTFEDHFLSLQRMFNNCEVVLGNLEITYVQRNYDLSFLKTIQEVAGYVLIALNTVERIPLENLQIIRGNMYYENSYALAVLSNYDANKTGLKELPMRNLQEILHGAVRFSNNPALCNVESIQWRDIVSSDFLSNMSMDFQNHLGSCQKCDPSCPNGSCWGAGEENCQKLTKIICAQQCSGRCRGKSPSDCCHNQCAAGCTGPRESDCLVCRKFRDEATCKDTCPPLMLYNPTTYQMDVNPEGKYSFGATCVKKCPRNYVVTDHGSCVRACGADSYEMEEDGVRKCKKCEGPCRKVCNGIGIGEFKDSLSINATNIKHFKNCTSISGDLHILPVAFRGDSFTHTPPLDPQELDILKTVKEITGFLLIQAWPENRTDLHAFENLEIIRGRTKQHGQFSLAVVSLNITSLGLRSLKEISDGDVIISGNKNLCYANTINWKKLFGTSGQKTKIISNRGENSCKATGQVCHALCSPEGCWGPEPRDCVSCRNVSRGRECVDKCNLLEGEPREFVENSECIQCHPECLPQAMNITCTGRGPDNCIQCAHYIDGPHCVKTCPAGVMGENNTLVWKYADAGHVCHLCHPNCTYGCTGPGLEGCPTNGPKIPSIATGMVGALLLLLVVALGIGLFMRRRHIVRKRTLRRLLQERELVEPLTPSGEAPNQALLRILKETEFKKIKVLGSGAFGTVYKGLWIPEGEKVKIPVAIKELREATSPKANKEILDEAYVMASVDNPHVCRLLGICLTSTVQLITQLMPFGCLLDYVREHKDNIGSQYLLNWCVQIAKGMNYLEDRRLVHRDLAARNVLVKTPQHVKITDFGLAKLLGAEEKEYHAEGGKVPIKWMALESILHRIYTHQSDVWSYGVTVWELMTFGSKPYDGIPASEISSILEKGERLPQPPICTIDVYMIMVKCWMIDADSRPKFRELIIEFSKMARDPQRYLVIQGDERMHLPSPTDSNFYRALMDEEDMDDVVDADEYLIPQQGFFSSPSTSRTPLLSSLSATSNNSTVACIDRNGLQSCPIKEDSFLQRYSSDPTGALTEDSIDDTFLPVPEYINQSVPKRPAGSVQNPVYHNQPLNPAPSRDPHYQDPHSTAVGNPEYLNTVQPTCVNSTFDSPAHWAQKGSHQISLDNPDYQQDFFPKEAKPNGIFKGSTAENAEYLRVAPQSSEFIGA

For `CO[C@@H]1CN(C/C=C/C(=O)N2CC(c3ccn4ncnc(Nc5ccc(Oc6ccc7c(c6)ncn7C)c(C)c5)c34)C2)C[C@H]1OC` [Example 166, (E)-4-((3R,4R)-3,4-dimethoxypyrrolidin-1-yl)-1-(3-(4-((3-methyl-4-((1-methyl-1H-benzo[d]imidazol-5-yl)oxy)phenyl)amino)pyrrolo[2,1-f][1,2,4]triazin-5-yl)azetidin-1-yl)but-2-en-1-one], the GI50 in test [1] is 1500 to 5000 nM; in test [2], under 200 nM; in test [3], under 200 nM.

On to `CO[C@H]1CN(C/C=C/C(=O)N2CCC(c3ccn4ncnc(Nc5ccc(Oc6ccc7c(c6)ncn7C)c(C)c5)c34)CC2)C[C@H]1OC` [Example 167, (E)-4-((3R,4S)-3,4-dimethoxypyrrolidin-1-yl)-1-(4-(4-((3-methyl-4-((1-methyl-1H-benzo[d]imidazol-5-yl)oxy)phenyl)amino)pyrrolo[2,1-f][1,2,4]triazin-5-yl)piperidin-1-yl)but-2-en-1-one], for which the values for the GI50 in test [1], in test [2] and in test [3] were 1500 to 5000 nM, under 200 nM and under 200 nM, respectively.

As for `CO[C@@H]1CN(C/C=C/C(=O)N2CCC(c3ccn4ncnc(Nc5ccc(Oc6ccc7c(c6)ncn7C)c(C)c5)c34)CC2)C[C@H]1OC` [Example 168, (E)-4-((3R,4R)-3,4-dimethoxypyrrolidin-1-yl)-1-(4-(4-((3-methyl-4-((1-methyl-1H-benzo[d]imidazol-5-yl)oxy)phenyl)amino)pyrrolo[2,1-f][1,2,4]triazin-5-yl)piperidin-1-yl)but-2-en-1-one], the results for the GI50 in test [1], in test [2] and in test [3] were 1500 to 5000 nM, under 200 nM and under 200 nM, respectively.

For the molecule `CO[C@H]1CN(C/C=C/C(=O)N2CCC(c3ccn4ncnc(Nc5ccc(Oc6ccn7ncnc7c6)c(C)c5)c34)CC2)C[C@H]1OC` [Example 169, (E)-1-(4-(4-((4-([1,2,4]triazolo[1,5-a]pyridin-7-yloxy)-3-methylphenyl)amino)pyrrolo[2,1-f][1,2,4]triazin-5-yl)piperidin-1-yl)-4-((3R,4S)-3,4-dimethoxypyrrolidin-1-yl)but-2-en-1-one], the GI50 in test [1] was 1500 to 5000 nM; in test [2] it was under 200 nM; in test [3] it was under 200 nM.

As to `CO[C@@H]1CN(C/C=C/C(=O)N2CCC(c3ccn4ncnc(Nc5ccc(Oc6ccn7ncnc7c6)c(C)c5)c34)CC2)C[C@H]1OC` [Example 170, (E)-1-(4-(4-((4-([1,2,4]triazolo[1,5-a]pyridin-7-yloxy)-3-methylphenyl)amino)pyrrolo[2,1-f][1,2,4]triazin-5-yl)piperidin-1-yl)-4-((3R,4R)-3,4-dimethoxypyrrolidin-1-yl)but-2-en-1-one], the results for the GI50 in test [1], in test [2] and in test [3] were 1500 to 5000 nM, under 200 nM and under 200 nM, respectively.

As for `Cc1cc(Nc2ncnn3ccc(C4(F)CCN(C(=O)/C=C/CN(C)C)CC4)c23)ccc1Oc1ccn2ncnc2c1` [Example 175, (E)-1-(4-(4-((4-([1,2,4]triazolo[1,5-a]pyridin-7-yloxy)-3-methylphenyl)amino)pyrrolo[2,1-f][1,2,4]triazin-5-yl)-4-fluoropiperidin-1-yl)-4-(dimethylamino)but-2-en-1-one], the GI50 in test [1], in test [2] and in test [3] was 1500 to 5000 nM throughout.

As to `Cc1cc(Nc2ncnn3ccc(C4CCN(C(=O)/C=C/CN(C)C)CC4(F)F)c23)ccc1Oc1ccn2ncnc2c1` (stereo not drawn) [Example 176, (E)-1-(4-(4-((4-([1,2,4]triazolo[1,5-a]pyridin-7-yloxy)-3-methylphenyl)amino)pyrrolo[2,1-f][1,2,4]triazin-5-yl)-3,3-difluoropiperidin-1-yl)-4-(dimethylamino)but-2-en-1-one], the GI50 in test [1] is 1500 to 5000 nM; in test [2], under 200 nM; in test [3], under 200 nM.
